Patent US5576341A, “2-[[2-(N-isobutyl-N-methyl)amino]benzylsulfinyl]-benzimidazole as antimicrobial agent” (Nippon Chemiphar Co., Ltd., priority 1993, dated 1996)
Values after ≈ are worked out from the molar mass of the structure shown.

Tests used:
[1] = tested on: Helicobacter pylori ATCC 43629; assay: MIC by agar plate dilution method (Experimental 2), ATCC 43629; details: ATCC43629, 144 h
[2] = tested on: Helicobacter pylori ATCC 43579; assay: MIC by agar plate dilution method (Experimental 2), ATCC 43579; details: ATCC43579, 144 h
[3] = tested on: Helicobacter pylori ATCC 43526; assay: MIC by agar plate dilution method (Experimental 2), ATCC 43526; details: ATCC43526, 144 h
[4] = tested on: Helicobacter pylori Wild 1; assay: MIC by agar plate dilution method (Experimental 2), Wild 1; details: WILD1, 144 h
[5] = tested on: Helicobacter pylori Wild 1; assay: MIC by agar plate dilution method (Experimental 2), Wild 1 (first line); details: WILD1, 144 h
[6] = tested on: Helicobacter pylori; assay: microbe, parasite or virus in culture; details: 144 h, read-out: MIC (minimal inhibitory concentration)
[7] = tested on: Helicobacter pylori NCTC 11637; assay: MIC by agar plate dilution method (Experimental 2), NCTC 11637; details: NCTC11637, 144 h
[8] = tested on: Helicobacter pylori; details: Antimicrobial Agents and Chemotherapy, March 1991, p.490-496; cited from earlier work

Compound | MIC [1] [µg/mL] | MIC [2] [µg/mL] | MIC [3] [µg/mL] | MIC [4] [µg/mL] | MIC [5] [µg/mL] | MIC [6] [µg/mL] | MIC [7] [µg/mL] | antimicrobial activity against Helicobacter pylori (in words) [8]
CN/C(=N/CCSCc1nc[nH]c1C)NC#N [Cimetidine] | 800 (≈ 3170 µM) | 800 (≈ 3170 µM) | 800 (≈ 3170 µM) | – | – | – | – | –
CC(C)CN(C)c1ccccc1C[S+]([O-])c1nc2ccccc2[nH]1 (stereo not drawn) [Compound (1), 2-[[2-(N-isobutyl-N-methyl)amino]benzylsulfinyl]benzimidazole] | 12.5 (≈ 36.6 µM) | 25 (≈ 73.2 µM) | 25 (≈ 73.2 µM) | 50 (≈ 146 µM) | 50 (≈ 146 µM) | 12.5 (≈ 36.6 µM) | 25 (≈ 73.2 µM) | –
NC(N)=Nc1nc(CSCCC(N)=NS(N)(=O)=O)cs1 [Famotidine] | 800 (≈ 2370 µM) | 800 (≈ 2370 µM) | > 800 | – | – | – | – | –
COc1ccc2[nH]c([S+]([O-])Cc3ncc(C)c(OC)c3C)nc2c1 (stereo not drawn) [Omeprazole] | 12.5 (≈ 36.2 µM) | 12.5 (≈ 36.2 µM) | 12.5 (≈ 36.2 µM) | 50 (≈ 145 µM) | 50 (≈ 145 µM) | – | 50 (≈ 145 µM) | have antimicrobial activity against Helicobacter pylori
Cc1c(OCC(F)(F)F)ccnc1C[S+]([O-])c1nc2ccccc2[nH]1 (stereo not drawn) [lansoprazole] | – | – | – | – | – | – | – | have antimicrobial activity against Helicobacter pylori
